Earlier results in patent US5348950A, “Platinum(II) complex and antitumor agent” (Toray Industries, Inc., priority 1991, dated 1994).

Details: background statement

SMILES | anti-tumor activity | side effects
N.N.O=C([O-])C1(C(=O)[O-])CCC1.[Pt+2] [CBDCA, cisdiammine(1,1-cyclobutanedicarboxylato)platinum(II)] | low anti-tumor activity | –
N.N.[Cl][Pt][Cl] [CDDP, cisdiamminedichloroplatinum(II)] | – | strong side effects
